The text below walks through data of patent US20090325923A1, “NEW METHOD FOR THE TREATMENT OF INFLAMMATORY DISEASES” (TOPOTARGET SWITZERLAND SA, priority 2006, published 2009).

Structures are written as SMILES.

Test [1] deals with RAW264.7 cell line. As to the kind of experiment: TNFα mRNA levels by RT-PCR in RAW264.7 cells. It is filed as cell-based, mouse. Conditions: RAW 264.7, LPS in the presence of FK866, RT-PCR. On the procedure: (§1) The murine RAW264.7 cell line was stimulated with LPS in the presence of FK866. TNF protein concentrations were determined by ELISA (above panel) while mRNA levels were determined by RT-PCR (below panel).
(§2) This example illustrates that FK866 inhibits TNFα secretion at a posttranscriptional level. The murine RAW 264.7 cell line was incubated in the presence of graded doses of FK866, stimulated with microbial products, and levels of TNFα released in the supernatant evaluated by ELISA.

Test [2] relates to mouse peritoneal macrophages. Description: LPS-stimulated TNF and IL-6 secretion by ELISA in peritoneal macrophages. It is filed as cell-based. Conditions: overnight increasing doses of FK866, LPS 6 h. On the procedure:
(§3) Human monocytic cell line THP-1, human peripheral blood mononuclear cells (PBMC), human monocyte-derived dendritic cells, or mouse peritoneal macrophages were isolated and cultured overnight with increasing doses of FK866, and then stimulated with LPS for 6 h. The culture supernatants were tested for TNF and IL-6 content by ELISA
(§4) This example describes the inhibition of pro-inflammatory cytokines production by the competitive small molecular weight compound inhibitor of NMPRT, ((E)-N-[4-(1-benzoylpiperidin-4-yl)butyl]-3-(pyridin-3-yl)acrylamide, designated FK866). Human monocytic cell line THP-1, human peripheral blood mononuclear cells (PBMC), human monocyte-derived dendritic cells, or mouse peritoneal macrophages were isolated and cultured overnight with increasing doses of FK866, and then stimulated with LPS for 6 h. The culture supernatants were tested for TNF and IL-6 content by ELISA.
(An ELISA detects its analyte on a solid surface through an enzyme-linked reagent.)

Test [3] concerns Peritoneal exudates cells (PEC). Description: Intracellular NAD in thioglycollate-elicited peritoneal exudate cells in vivo. Also noted: species or system mouse. On the procedure:
Mice were treated with thioglycollate to elicit PEC, and then received 10 mg/kg FK866 by ip injection. PEC were obtained by lavage after different time points and intracellular NAD was determined. Data are mean±sem of 3 mice per group.
Mice were treated with thioglycollate to elicit PEC, and then received 10 mg/kg FK866 or placebo by ip injection 7 h before ip challenge with LPS. Mean serum TNFα at 90 min+sem of 3 mice per group is shown. PEC were obtained by lavage and intracellular NAD was determined. Data are mean±sem of 3 mice per group.
This example illustrates that FK866 reduces intracellular NAD level in inflammatory cells in vivo. Naïve mice were treated ip with thioglycollate to elicit inflammatory cells, and then FK866 was administered ip at 10 mg/kg. Peritoneal exudates cells (PEC) were obtained by lavage at different time points after treatment, and intracellular NAD levels were determined using an enzymatic assay.
This example illustrates that NAMPT inhibition reduces circulating TNFα during endotoxemia and correlates with diminished intracellular NAD in inflammatory cells. Naïve mice were treated ip with thioglycollate to elicit inflammatory cells, and then were treated ip with placebo or 10 mg/kg FK866 7 h before an intraperitoneal injection of LPS. Mice were bled 90 min later for evaluation of serum TNFα levels.

Test [4] has as its system RAW264.7 cell line. Description: LPS-stimulated TNF secretion by ELISA in RAW264.7 cells. Format: cell-based, mouse. On the procedure: as §1
(A) The mouse macrophage cell line RAW264.7 was cultured overnight with increasing doses of FK866, and then stimulated with LPS for 2 h. The culture supernatants were tested for TNF content by ELISA and intracellular NAD levels were measured by an enzymatic assay.
(B) RAW264.7 cells were cultured overnight in the presence of FK866 and the intracellular pool of NAD was restored by co-incubation of the cells with nicotinic acid (NA). Cells were then stimulated with LPS for 2 h and the culture supernatant was tested for TNF content by ELISA.
(C) RAW264.7 cells were cultured overnight in the presence of FK866 and NAD levels were maintained by culturing the cells in the presence of extracellular NAD. Cells were then stimulated with LPS for 2 h and the culture supernatant was tested for TNF content by ELISA.
as §2
This example illustrates the correlation between proinflammatory cytokine secretion and NAD levels in the cell. The mouse macrophage cell line RAW264.7 was cultured overnight with increasing doses of FK866, and then stimulated with LPS for 2 h. The culture supernatants were tested for TNF content by ELISA and intracellular NAD levels were measured by an enzymatic assay.
In another experiment, RAW264.7 cells were cultured overnight in the presence of FK866 and the intracellular pool of NAD was restored by co-incubation of the cells with nicotinic acid. Nicotinic acid is a precursor of NAD, but its transformation into NAD is not dependent upon NMPRT and is thus not inhibited by FK866. Cells were then stimulated with LPS for 2 h and the culture supernatant was tested for TNF content by ELISA.
In another experiment, RAW264.7 cells were cultured overnight in the presence of FK866 and NAD levels were maintained by culturing the cells in the presence: of extra-cellular NAD. Cells were then stimulated with LPS for 2 h and the culture supernatant was tested for TNF content by ELISA.

For test [5], the system named is Human monocytic cell line THP-1. Description: LPS-stimulated cytokine secretion by ELISA in THP-1 cells. It is filed as cell-based. Conditions: THP-1, overnight increasing doses of FK866, LPS 6 h. On the procedure: Human monocytic cell line THP-1 was cultured overnight in the presence of graded doses of nicotinic acid (NA), a precursor of NAD, and then stimulated with lipopolysaccharide (LPS) from gram-negative bacteria for 2 h. The cell supernatant was tested for tumor necrosis factor (TNF) content by ELISA and the intracellular pool of NAD was measured by an enzymatic assay.
as §3
THP-1 cells were incubated in the presence of 10 nM FK866 and graded doses of NMN. Cells were further stimulated with LPS and intracellular NAD levels and TNFα secretion were determined using standard assays.
This example illustrates the direct relationship between NAD levels in cells and pro-inflammatory cytokine secretion. Human monocytic cell line THP-1 was cultured overnight in the presence of nicotinic acid, a precursor of NAD, and then stimulated with lipopolysaccharide (LPS) from gram-negative bacteria for 2 h. The cell supernatant was tested for tumor necrosis factor (TNF) content by ELISA and the intracellular pool of NAD was measured by an enzymatic assay.
as §4
This example illustrates that NAMPT is the only molecular target of FK866. […]

Take `O=C(/C=C/c1cccnc1)NCCCCC1CCN(C(=O)c2ccccc2)CC1` [FK866, (E)-N-[4-(1-benzoylpiperidin-4-yl)butyl]-3-(pyridine-3-yl)-acrylamide]: in the test with RAW264.7 cell line [1], the “TNFα mRNA levels” value was “did not significantly affect”. Moreover, the “cytokine secretion (TNF and IL-6)” value in test [2] is recorded as “inhibited cytokine secretion in a dose-dependent fashion”. Further, in test [3] (10 mg/kg ip), the “time of NAD nadir after injection” value worked out at 9 h and the “time of NAD recovery after injection” value is recorded as “around 14 h”. The “intracellular NAD in PECs” value in test [3] (10 mg/kg ip 7 h before ip LPS, same mice, vs placebo) is “significant decrease”. For the same molecule, the “intracellular NAD in PEC (macrophages) in vivo” value in test [3] (10 mg/kg ip, lavage at different time points) is reported as “significant time-dependent NAD depletion”. Besides, the TNFα secretion entry in the test with RAW264.7 cell line [4] (RAW 264.7, graded doses of FK866, stimulated with LPS, ELISA) is reported as “strongly inhibited”. Besides, in the test with RAW264.7 cell line [4] (RAW264.7, overnight increasing doses of FK866, LPS 2 h), the TNF production entry is “inhibition of TNF production”. In addition, the “cytokine secretion (TNF and IL-6)” value in test [5] is listed as “inhibited cytokine secretion in a dose-dependent fashion”.
